Results reported in PMC10763615, “Identification and engineering of potent cyclic peptides with selective or promiscuous binding through biochemical profiling and bioinformatic data analysis” (RSC Chemical Biology, 2023).
Where two headings read alike, the source gives them in different places.

Experiments:
[1] = molecular target: T1, FGF-R3C ECD (Homo sapiens, UniProt P22607); experiment: biochemical; format: binding; parameters: DNA constructs for the extracellular domain (ECD) of human FGF-; HPC4 (C); made in house; host or cells: HEK 293-6E
T1 sequence (P22607 23-375 limits assumed): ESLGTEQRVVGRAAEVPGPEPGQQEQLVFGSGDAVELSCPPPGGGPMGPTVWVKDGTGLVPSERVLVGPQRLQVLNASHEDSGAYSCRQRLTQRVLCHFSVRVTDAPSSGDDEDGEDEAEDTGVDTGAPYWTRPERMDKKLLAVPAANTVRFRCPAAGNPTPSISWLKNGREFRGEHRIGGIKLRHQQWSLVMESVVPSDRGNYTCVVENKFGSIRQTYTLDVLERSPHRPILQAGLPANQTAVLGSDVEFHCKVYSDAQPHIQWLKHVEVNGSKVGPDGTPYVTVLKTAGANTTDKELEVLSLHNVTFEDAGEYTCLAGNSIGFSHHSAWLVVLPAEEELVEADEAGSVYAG
Method in brief: (§1)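 Biotinylated FGF-R ECD on streptavidin biosensors was dipped into ~1 μM crude peptide in PBS pH7.4 with 0.05% Tween-20 and 0.01% BSA for association, then into buffer for dissociation, and followed by BLI. Fitted KD values were adjusted for peptide concentration measured by UPLC-CAD.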

[2] = molecular target: T2, FGF-R1C ECD (Homo sapiens, UniProt P11362); experiment: biochemical; format: binding; parameters: DNA constructs for the extracellular domain (ECD) of human FGF-; HPC4 (C); made in house; host or cells: HEK 293-6E
T2 sequence (P11362 22-376 limits assumed): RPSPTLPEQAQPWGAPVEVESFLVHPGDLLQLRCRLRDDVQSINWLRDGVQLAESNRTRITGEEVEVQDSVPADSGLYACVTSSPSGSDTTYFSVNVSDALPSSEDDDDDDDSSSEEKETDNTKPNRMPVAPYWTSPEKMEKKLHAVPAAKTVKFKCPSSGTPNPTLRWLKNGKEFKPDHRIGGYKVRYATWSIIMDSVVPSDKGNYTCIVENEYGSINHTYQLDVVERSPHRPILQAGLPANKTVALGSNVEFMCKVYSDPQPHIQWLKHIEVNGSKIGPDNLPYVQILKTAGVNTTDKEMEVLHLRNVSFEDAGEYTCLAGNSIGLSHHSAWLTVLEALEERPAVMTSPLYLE
Method in brief: as §1

[3] = molecular target: T1, FGF-R3C ECD; experiment: biochemical
Experimental: (§2) KD affinity binding measurements were obtained by biolayer interferometry (BLI) instruments (Fortebio Octet HTX, or Sartorius Octet RH16 using either 8 or 16 channel mode.
(§3) For single concentration binding experiments, 50 μM peptide stocks in folding buffer were diluted 1:50 in mRNA display selection buffer (PBS pH7.4 supplemented with 0.05% Tween-20 and 0.01% BSA) in either a 96 well black plate, or a 384 well tilted bottom microplate (ForteBio). Biotinylated FGF-R protein was loaded onto Streptavidin-functionalised biosensors (ForteBio) and immersed into ~1 μM peptide to obtain association kinetics curves. Dissociation kinetics curves were obtained by subsequent immersion of ligand-associated loaded sensors into a 1:50 dilution of folding buffer in mRNA display selection buffer. Fitted KD data was adjusted for concentration as determined by UPLC-CAD.
(§4) For accurate multi-concentration KD determination, dilution series of each peptide were made, and association and dissociation kinetics curves were obtained as above for each concentration to fit a multi-point KD binding model. Data collection and analysis was performed using the Octet Instrument Control […]
(§5) concentration assay kinetics curves shown in supplementary Figure S 19-24.

[4] = molecular target: T2, FGF-R1C ECD; experiment: biochemical
Experimental: as §2, §3, §4, §5

[5] = molecular target: T3, FGF-R4 ECD (Homo sapiens, UniProt P22455); experiment: single concentration BLI of crude peptides; format: binding; settings: read-out: KD (4)
T3 construct: DNA constructs for the extracellular domain (ECD) of human FGF-; HPC4 (C); made in house; host or cells: HEK 293-6E
T3 sequence (P22455 22-369 limits assumed): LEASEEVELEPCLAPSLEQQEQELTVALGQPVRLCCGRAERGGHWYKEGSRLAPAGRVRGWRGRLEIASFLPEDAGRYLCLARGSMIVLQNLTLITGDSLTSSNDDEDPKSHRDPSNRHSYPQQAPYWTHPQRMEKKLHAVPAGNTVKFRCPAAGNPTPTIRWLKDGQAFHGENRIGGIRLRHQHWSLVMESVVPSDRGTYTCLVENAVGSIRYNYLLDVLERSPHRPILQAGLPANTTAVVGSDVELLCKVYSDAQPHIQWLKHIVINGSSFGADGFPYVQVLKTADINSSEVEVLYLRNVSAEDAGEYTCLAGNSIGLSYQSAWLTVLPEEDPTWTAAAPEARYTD
Method in brief: as §1

[6] = molecular target: T3, FGF-R4 ECD; experiment: multi-concentration BLI of purified peptides; format: binding
Experimental: as §2, §3, §4, §5

[7] = crude T18 selection 1 (1:1:1) peptides, single concentration BLI (Table S4)
[8] = purified trimer-18 library peptides

Compound | Kd [1] | Kd [2] | Kd [3] | Kd [4] | Kd [5, 7] | Kd [6, 8] | Kd ([5]; crude NNK peptides, single concentration BLI (Table S3)) | Kd ([6]; purified NNK library peptides) | R4 KD (nM) [6, 8]
CSCC[C@H](NC(C)=O)C(=O)N[C@H]1CSSC[C@@H](C(=O)NCC(=O)N[C@@H](CO)C(=O)NCC(=O)N[C@@H](CO)C(=O)N[C@@H](CC(=O)O)C(=O)N[C@@H](Cc2ccc(O)cc2)C(=O)N[C@@H](CCCCN)C(=O)N[C@@H](CC(=O)O)C(=O)N[C@@H](CC(=O)O)C(=O)N[C@@H](CC(=O)O)C(=O)N[C@@H](CC(=O)O)C(=O)N[C@@H](CCCCN)C(N)=O)NC(=O)[C@H](Cc2c[nH]cn2)NC(=O)[C@H](CCCNC(=N)N)NC(=O)[C@H](CC(C)C)NC(=O)[C@H](CC(=O)O)NC(=O)[C@H](CCCCN)NC(=O)[C@H](Cc2ccc(O)cc2)NC(=O)[C@H](CC(C)C)NC(=O)[C@H](CC(C)C)NC(=O)[C@H](C(C)C)NC(=O)[C@H](CC(N)=O)NC1=O [4.17] | > 10000 nM | > 10000 nM | > 1000 nM | > 1000 nM | > 10000 nM | > 1000 nM |  |  | 
CC[C@H](C)[C@@H]1NC(=O)[C@H](CCCCN)NC(=O)[C@H](Cc2ccc(O)cc2)NC(=O)[C@H]([C@@H](C)CC)NC(=O)[C@H](CO)NC(=O)[C@H](C(C)C)NC(=O)[C@H](CC(C)C)NC(=O)[C@@H](NC(=O)[C@H](CCSC)NC(C)=O)CSSC[C@@H](C(=O)NCC(=O)N[C@@H](CO)C(=O)NCC(=O)N[C@@H](CO)C(=O)N[C@@H](CC(=O)O)C(=O)N[C@@H](Cc2ccc(O)cc2)C(=O)N[C@@H](CCCCN)C(=O)N[C@@H](CC(=O)O)C(=O)N[C@@H](CC(=O)O)C(=O)N[C@@H](CC(=O)O)C(=O)N[C@@H](CC(=O)O)C(=O)N[C@@H](CCCCN)C(N)=O)NC(=O)[C@H]([C@@H](C)O)NC(=O)[C@H](CCCNC(=N)N)NC(=O)[C@H](CCSC)NC1=O [4.1] | 6120 nM | > 10000 nM | > 1000 nM | > 1000 nM |  |  | 193 nM | > 1000 nM | 
CC[C@H](C)[C@@H]1NC(=O)[C@H](CCCCN)NC(=O)[C@H](CO)NC(=O)[C@H](CC(N)=O)NC(=O)[C@@H]2CCCN2C(=O)[C@@H]2CCCN2C(=O)[C@H](CCCNC(=N)N)NC(=O)[C@H](Cc2c[nH]cn2)NC(=O)[C@H](Cc2ccc(O)cc2)NC(=O)[C@@H](NC(=O)[C@H](CCSC)NC(C)=O)CSSC[C@@H](C(=O)NCC(=O)N[C@@H](CO)C(=O)NCC(=O)N[C@@H](CO)C(=O)N[C@@H](CC(=O)O)C(=O)N[C@@H](Cc2ccc(O)cc2)C(=O)N[C@@H](CCCCN)C(=O)N[C@@H](CC(=O)O)C(=O)N[C@@H](CC(=O)O)C(=O)N[C@@H](CC(=O)O)C(=O)N[C@@H](CC(=O)O)C(=O)N[C@@H](CCCCN)C(N)=O)NC(=O)[C@H](CCCCN)NC(=O)[C@H](CCCNC(=N)N)NC(=O)[C@H](Cc2c[nH]c3ccccc23)NC1=O [4.14] | > 10000 nM | > 10000 nM | > 1000 nM | > 1000 nM | 214 nM | 524 nM |  |  | 
CSCC[C@H](NC(C)=O)C(=O)N[C@H]1CSSC[C@@H](C(=O)NCC(=O)N[C@@H](CO)C(=O)NCC(=O)N[C@@H](CO)C(=O)N[C@@H](CC(=O)O)C(=O)N[C@@H](Cc2ccc(O)cc2)C(=O)N[C@@H](CCCCN)C(=O)N[C@@H](CC(=O)O)C(=O)N[C@@H](CC(=O)O)C(=O)N[C@@H](CC(=O)O)C(=O)N[C@@H](CC(=O)O)C(=O)N[C@@H](CCCCN)C(N)=O)NC(=O)[C@H](C)NC(=O)[C@H](Cc2c[nH]c3ccccc23)NC(=O)[C@H](Cc2ccc(O)cc2)NC(=O)[C@H](CCCNC(=N)N)NC(=O)[C@H](Cc2ccc(O)cc2)NC(=O)[C@H](CO)NC(=O)[C@H](Cc2ccc(O)cc2)NC(=O)[C@H](Cc2ccccc2)NC(=O)[C@H](CC(=O)O)NC(=O)[C@H](CC(=O)O)NC(=O)[C@H](CC(C)C)NC(=O)[C@H](Cc2ccc(O)cc2)NC1=O [4.16] | > 10000 nM | 54 nM | 37 nM | 15 nM | > 10000 nM | > 1000 nM |  |  | no observable binding
CSCC[C@H](NC(C)=O)C(=O)N[C@H]1CSSC[C@@H](C(=O)NCC(=O)N[C@@H](CO)C(=O)NCC(=O)N[C@@H](CO)C(=O)N[C@@H](CC(=O)O)C(=O)N[C@@H](Cc2ccc(O)cc2)C(=O)N[C@@H](CCCCN)C(=O)N[C@@H](CC(=O)O)C(=O)N[C@@H](CC(=O)O)C(=O)N[C@@H](CC(=O)O)C(=O)N[C@@H](CC(=O)O)C(=O)N[C@@H](CCCCN)C(N)=O)NC(=O)[C@H](Cc2c[nH]cn2)NC(=O)[C@H](CCCNC(=N)N)NC(=O)[C@H](CC(C)C)NC(=O)[C@H](C(C)C)NC(=O)[C@H](CCCCN)NC(=O)[C@H](Cc2ccc(O)cc2)NC(=O)[C@H](CC(C)C)NC(=O)[C@H](CC(C)C)NC(=O)[C@H](C(C)C)NC(=O)[C@H](CC(N)=O)NC1=O [4.11] | > 10000 nM | > 10000 nM | 115 nM | > 1000 nM | 11 nM | 543 nM |  |  | 
CSCC[C@H](NC(C)=O)C(=O)N[C@H]1CSSC[C@@H](C(=O)NCC(=O)N[C@@H](CO)C(=O)NCC(=O)N[C@@H](CO)C(=O)N[C@@H](CCC(=O)O)C(=O)N[C@@H](CCC(=O)O)C(=O)NCC(=O)N[C@@H](CO)C(=O)NCC(=O)N[C@@H](CO)C(=O)N[C@@H](CC(=O)O)C(=O)N[C@@H](Cc2ccc(O)cc2)C(=O)N[C@@H](CCCCN)C(=O)N[C@@H](CC(=O)O)C(=O)N[C@@H](CC(=O)O)C(=O)N[C@@H](CC(=O)O)C(=O)N[C@@H](CC(=O)O)C(=O)N[C@@H](CCCCN)C(N)=O)NC(=O)[C@H](CCCNC(=N)N)NC(=O)[C@H](CCCNC(=N)N)NC(=O)[C@H](Cc2c[nH]c3ccccc23)NC(=O)[C@H](CC(C)C)NC(=O)[C@H](CCCCN)NC(=O)[C@H](Cc2ccc(O)cc2)NC(=O)[C@H](Cc2ccc(O)cc2)NC(=O)[C@H](Cc2ccc(O)cc2)NC(=O)[C@H](CC(C)C)NC(=O)[C@H]([C@@H](C)O)NC(=O)[C@H]([C@@H](C)O)NC1=O [4.9] | 2250 nM | 699 nM | > 1000 nM | > 1000 nM | 1 nM | > 1000 nM |  |  | 
